In publication PMC8123306, “Identification of Novel Inhibitors of Escherichia coli DNA Ligase (LigA)” (Molecules, 2021):
Like-named read-outs stand apart in the source and are kept apart here.

Target: T1, EC-LigA (Escherichia coli DNA ligase LigA) (Escherichia coli, UniProt P15042)
T1 construct: purchased NEB
Assay: in vitro ligase assay (nicked DNA substrate, denaturing PAGE)
Type: biochemical
Conditions: for inhibition of EC-LigA (result in words): concentrations up to 3333 µM; for extent of inhibition reached (complete or partial): highest concentration tested 3333 µM; for extent of ligation in the presence of small molecule: at all small molecule concentrations tested (up to 3333 µM), about 50% ligation without small molecule
Protocol: A 50 bp nicked DNA substrate was designed and prepared by annealing a 5′ hexachlorofluorescein (HEX) labelled, 3′ hydroxyl 20 nt single stranded oligonucleotide (20Top) and an unlabelled, 5′ phosphate 30 nt single stranded oligonucleotide (30Top) to a complementary unlabelled 50 nt single stranded oligonucleotide (50Bot) (Figure 4A). Incubation of this nicked DNA substrate with EC-LigA in the presence of NAD^+ cofactor should lead to phosphodiester bond formation between the 3′ hydroxyl of 20Top and the 5′ phosphate of 30Top to produce a 50 bp double stranded DNA product. The ligation reaction can be evaluated by resolving the 50 nt 5′ HEX labelled single stranded DNA and the 20 nt 5′ HEX labelled 20Top single stranded DNA by denaturing polyacrylamide gel electrophoresis (PAGE). The inhibitory activity of small molecules on EC-LigA activity can then be assessed by comparing the extent of ligation (the percentage of 50 nt 5′ HEX labelled single stranded DNA produced) in the absence of small molecule to the extent of ligation in the presence of small molecule. Small molecule inhibitors of EC-LigA will reduce the percentage of 50 nt 5′ HEX labelled single stranded DNA produced.
Figure 4 In vitro screening of candidate EC-LigA small molecule inhibitors. (A) A schematic of the in vitro ligation assay. A 50 bp nicked DNA substrate was prepared by annealing a 5′ hexachlorofluorescein (HEX) labelled, 3′ hydroxyl 20 nt single stranded oligonucleotide (20Top, blue) and an unlabelled, 5′ phosphate 30 nt single stranded oligonucleotide (30Top) to a complementary unlabelled 50 nt single stranded oligonucleotide (50Bot). Subsequent ligation of 20Top and 30Top, by EC-LigA produced a 50 bp double stranded DNA product comprising 5′ HEX labelled 50 nt DNA (50Top, green) and the complementary unlabelled 50 nt DNA 50Bot. (B) Representative 10% (w/v) denaturing PAGE of in vitro ligase assays performed with 120 nM nicked DNA substrate, 30 nM EC-LigA and 26 µM NAD^+ in reaction buffer (30 mM Tris HCl, pH 8.0, 4 mM MgCl2, 1 mM DTT, and 50 µg/mL BSA) in the presence of increasing concentrations of geneticin (0–3333 µM) or chlorhexidine (0–3333 µM) at room temperature for 5 min. Blue and green triangles mark the HEX labelled 20Top (substrate) and 50Top (product) DNA species, respectively. Gels were quantitated using ImageJ and the mean percentage 50Top DNA product was plotted against small molecule concentration. Error bars represent the standard error of the mean for a minimum of two experimental repeats. […] (D) As for (B) but for increasing concentrations of 5-azacytidine (0–3333 µM) or imidazo[1,2-a]pyridine-7-C (0–3333 µM). (E) As for (B) but for increasing concentrations of bestatin (0–3333 µM) or 2-(aminomethyl)imidazole (0–3333 µM).
Quenched reactions were heat-denatured at 100°C for 3 min and placed on ice. Reaction products were resolved by 10% (w/v) denaturing PAGE (10% (w/v) polyacrylamide gels containing 20% formamide and 7 M urea). Inclusion of formamide in the polyacrylamide gels aided maintenance of single-stranded species during electrophoresis. Gels were visualised using a fluorescence-imager (Fuji FLA-5000) using an excitation wavelength of 532 nm. Digitised images were quantitated using ImageJ software (NIH) and the percentage of 20Top (substrate) and 50Top (product) in each lane was calculated. Data were fit to a three-parameter IC50 inhibition function: y=Ymax/1+(x/IC50)^n
In this equation, y is the percentage of 50Top (product) at small molecule inhibitor concentration x; Ymax is the theoretical maximal percentage of 50Top (product) that can be formed, IC50 is the concentration of small molecule inhibitor at half Ymax, and n is the Hill slope factor.

[1] = 120 nM nicked DNA, 30 nM EC-LigA, 26 µM NAD+, room temperature, 5 min, three-parameter fit, read-out: IC50

T1 sequence (P15042 whole entry): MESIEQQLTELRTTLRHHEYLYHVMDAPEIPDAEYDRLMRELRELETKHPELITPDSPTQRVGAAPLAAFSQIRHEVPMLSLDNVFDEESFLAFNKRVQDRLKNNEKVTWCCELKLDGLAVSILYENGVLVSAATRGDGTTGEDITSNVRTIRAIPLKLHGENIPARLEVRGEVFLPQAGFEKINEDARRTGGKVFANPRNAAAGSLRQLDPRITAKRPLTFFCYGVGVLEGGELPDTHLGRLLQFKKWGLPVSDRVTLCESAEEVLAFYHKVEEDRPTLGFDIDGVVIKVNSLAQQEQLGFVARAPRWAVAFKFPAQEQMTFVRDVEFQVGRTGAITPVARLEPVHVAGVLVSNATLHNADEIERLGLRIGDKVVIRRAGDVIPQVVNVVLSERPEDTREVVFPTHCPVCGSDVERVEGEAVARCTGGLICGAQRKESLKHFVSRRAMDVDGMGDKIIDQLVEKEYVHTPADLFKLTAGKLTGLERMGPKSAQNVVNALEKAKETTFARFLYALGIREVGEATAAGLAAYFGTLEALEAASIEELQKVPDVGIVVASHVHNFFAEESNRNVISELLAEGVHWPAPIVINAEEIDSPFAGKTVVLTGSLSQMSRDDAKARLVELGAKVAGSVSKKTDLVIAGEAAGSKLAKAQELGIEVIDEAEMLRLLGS

| Compound | IC50 [1] [µM] | IC50 (apparent IC50, read-out: IC50) [µM] | inhibition of EC-LigA (result in words) | extent of inhibition reached (complete or partial) | extent of ligation in the presence of small molecule | IC50 (IC50, 120 nM nicked DNA, 30 nM EC-LigA, 26 µM NAD+, room temperature, 5 min, three-parameter fit) [µM] | IC50 (IC50, as stated in the text, apparent IC50) [µM] |
| --- | --- | --- | --- | --- | --- | --- | --- |
| NCc1ncc[nH]1 [2-(aminomethyl)imidazole] | 872 ± 248 | 870 | inhibited the ligation reaction in a dose-dependent manner | inhibition was only partial |  |  |  |
| Nc1ncn([C@@H]2O[C@H](CO)[C@@H](O)[C@H]2O)c(=O)n1 [5-azacytidine, reference compound] |  |  | do not inhibit EC-LigA |  | approximately 50% |  |  |
| [H]/N=C(\N/C(=N/[H])NCCCCCCNC(=N)NC(=N)Nc1ccc(Cl)cc1)Nc1ccc(Cl)cc1 [Chlorhexidine, chlorhexidine, reference compound] | 11 |  | inhibited the ligation reaction in a dose-dependent manner | Complete inhibition of ligation was observed |  |  |  |
| CN[C@@H]1[C@@H](O)[C@@H](O[C@@H]2[C@@H](O)[C@H](O[C@H]3O[C@H]([C@@H](C)O)[C@@H](O)[C@H](O)[C@H]3N)[C@@H](N)C[C@H]2N)OC[C@]1(C)O [Geneticin, geneticin, reference compound] | 2600 ± 85.4 |  | inhibited the ligation reaction in a dose-dependent manner | Complete inhibition of ligation was observed |  |  |  |
| N[C@@H](CCC(=O)N[C@@H](CS)C(=O)NCC(=O)O)C(=O)O [Glutathione, glutathione] |  |  | inhibited the ligation reaction in a dose-dependent manner | Complete inhibition of ligation was observed |  | 1523 ± 10.1 | 1520 |
| O=C(NCNC(=O)NC1C(=O)NC(=O)N1CO)NC1C(=O)NC(=O)N1CO (centres unmarked) [Imidazolidinyl urea, imidazolidinyl urea] | 38.5 |  | inhibited the ligation reaction in a dose-dependent manner | Complete inhibition of ligation was observed |  |  |  |
| CC(C)C[C@H](NC(=O)[C@@H](O)[C@H](N)Cc1ccccc1)C(=O)O [bestatin, reference compound] |  |  | do not inhibit EC-LigA |  | approximately 50% |  |  |
| O=C(O)c1ccn2ccnc2c1 [imidazo[1,2-a]pyridine-7-C, imidazo[1,2-a]pyridine-7-carboxylic acid] |  |  | do not inhibit EC-LigA |  | approximately 50% |  |  |
